Measured values from US6540995B1, “Encapsulated cells producing cytochrome P450” (priority 1996, dated 2003).

Legend:
[1] = system: breast cancer cells transfected with the CYP2B1 gene; conditions: another study; cited from earlier work
[2] = system: breast cancer cells transfected with the CYP2B1 gene; conditions: another study; cited from earlier work; remark: listed apart in the source
[3] = after administration of the drug to patients (Wright et al. 1995); cited from earlier work

Procedure for CYP2B1 expressing cells: After five additional days the cells were trypsinised and an aliquot mixed with the same amount of 0.4% Giemsa in PBS, incubated for 1 min and the living cells counted.

Compound: O=P1(N(CCCl)CCCl)NCCCO1 (stereo not shown) [cyclophosphamide]
- effect on CYP2B1 transfected breast cancer cells [1]: cell killing
- effect on tumours after implantation in nude mice [2]: tumour regression
- sensitivity of CYP2B1 expressing cells compared with cells not expressing CYP2B1 (CYP2B1 expressing cells): tenfold higher sensitivity

Compound: O=P1(NCCCl)OCCCN1CCCl (stereo not shown) [ifosfamide]
- plasma drug concentrations [3]: 0.1 to 0.5 mM
